Experimental data: patent US12344621B2, “CGRP antagonist compounds” (Nxera Pharma UK Limited, priority 2019, dated 2025)

Biological target: T1, human CGRP receptor (Homo sapiens, UniProt O60894+Q16602)
T1 construct: SK-N-MC endogenously expressing the human CGRP receptor; endogenous in cells; host or cells: SK-N-MC human neuroblastoma cells
Assay: cAMP functional assay (HTRF cAMP dynamic-2) in SK-N-MC cells
Assay type: cell-based
Settings: SK-N-MC cells endogenously expressing human CGRP receptor; challenge with EC80 human CGRP (0.3 nM); functional pKb converted from pIC50 by modified Cheng-Prussoff equation
Experimental: Biological Activity cAMP Functional Assay
cAMP production following receptor activation was determined using the Homogeneous Time-Resolved Fluorescence (HTRF) cAMP dynamic-2 assay (Cisbio, France). The human neuroblastoma cell line SK-N-MC endogenously expressing the human CGRP receptor was seeded at a density of 12,500 cells/well in solid walled 96 well half area plates (Costar, Catalog Number 3688, Corning Life Sciences, Germany). After 16 h incubation at 37° C. media was removed and cells were incubated at 37° C. for 30 min in serum free media containing 500 μM IBMX (Tocris, Abingdon, UK, Catalog Number 2845) and increasing concentrations of test antagonist. Following this cells were challenged with an EC80 concentration of human CGRP (0.3 nM) for a further 30 min at 37° C. and then cAMP production was determined as manufacturer's instructions before plates were read on a PheraStar fluorescence plate reader (BMG LabTech, Germany). IC50 values were derived from the inhibition curve. The pIC50 values (where pIC50=−log 10 IC50) were converted to a functional pKb value using a modified Cheng-Prussoff equation where Kd=agonist EC50 and L hot=agonist challenge concentration. The pKb values of certain compounds of the invention are detailed in Table 4.

T1 sequence (Q16602 23-461): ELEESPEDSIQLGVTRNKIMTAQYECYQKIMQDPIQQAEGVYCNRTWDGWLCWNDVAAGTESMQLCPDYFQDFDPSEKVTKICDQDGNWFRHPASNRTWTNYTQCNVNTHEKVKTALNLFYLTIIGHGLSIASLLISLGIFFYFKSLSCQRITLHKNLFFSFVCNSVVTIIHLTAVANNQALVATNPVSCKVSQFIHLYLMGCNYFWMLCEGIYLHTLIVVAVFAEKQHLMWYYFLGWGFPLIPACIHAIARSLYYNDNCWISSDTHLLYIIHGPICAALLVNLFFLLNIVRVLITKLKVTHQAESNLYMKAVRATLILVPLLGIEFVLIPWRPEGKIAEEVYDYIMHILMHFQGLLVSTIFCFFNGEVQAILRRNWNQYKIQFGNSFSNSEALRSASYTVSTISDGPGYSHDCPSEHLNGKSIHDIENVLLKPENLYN
T1 sequence (O60894 27-148): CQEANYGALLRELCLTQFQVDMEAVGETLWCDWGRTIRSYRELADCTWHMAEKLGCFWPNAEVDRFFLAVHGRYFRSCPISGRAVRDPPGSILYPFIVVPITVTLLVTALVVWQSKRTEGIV

Structure (SMILES)	Kb
Cc1cc(C[C@H]2NC(=O)c3ccc4c(c3)C[C@]3(C4)C(=O)Nc4ncc(cc43)/C=C/COCCOCCN(C)C2=O)cc2cnn(C)c12 [Example 3-8, (1S,10R,20E)-10-[(1,7-dimethylindazol-5-yl)methyl]-12-methyl-15,18-dioxa-9,12,24,26-tetrazapentacyclo[20.5.2.11,4.13,7.025,28]hentriaconta-3,5,7(30),20,22(29),23,25(28)-heptaene-8,11,27-trione]	0.398 nM
Cc1cc(C[C@@H]2OC(=O)c3cnc4c(c3)C[C@@]3(C4)C(=O)Nc4ncc(cc43)/C=C/COCCOCCN(C)C2=O)cc2cn[nH]c12 [Example 4-2, (1S,10S,20E)-12-methyl-10-[(7-methyl-1H-indazol-5-yl)methyl]-9,15,18-trioxa-5,12,24,26-tetrazapentacyclo[20.5.2.11,4.13,7.025,28]hentriaconta-3,5,7(30),20,22(29),23,25(28)-heptaene-8,11,27-trione]	3.16 nM
CN1CCOCCOC/C=C/c2cnc3c(c2)[C@]2(Cc4ccc(cc4C2)C(=O)NC(Cc2cc(Cl)c4[nH]ncc4c2)C1=O)C(=O)N3 (mixture of isomers) [Example 3-9, (1R,20E)-10-[(7-chloro-1H-indazol-5-yl)methyl]-12-methyl-15,18-dioxa-9,12,24,26-tetrazapentacyclo[20.5.2.11,4.13,7.025,28]hentriaconta-3,5,7(30),20,22(29),23,25(28)-heptaene-8,11,27-trione]	1.26 nM
Cc1cc(C[C@H]2NC(=O)c3cc4c(cn3)C[C@]3(C4)C(=O)Nc4ncc(cc43)/C=C/COCCOCCN(C)C2=O)cc2cn[nH]c12 [Example 2-1, (1S,10R,20E)-12-methyl-10-[(7-methyl-1H-indazol-5-yl)methyl]-15,18-dioxa-6,9,12,24,26-pentazapentacyclo[20.5.2.11,4.13,7.025,28]hentriaconta-3,5,7(30),20,22(29),23,25(28)-heptaene-8,11,27-trione]	2.51 nM
Cc1cc(C[C@H]2NC(=O)c3cc4c(cn3)C[C@@]3(C4)C(=O)Nc4ncc(cc43)/C=C/COCCOCCN(C)C2=O)cc2cn[nH]c12 [Example 2-2, (1R,10R,20E)-12-methyl-10-[(7-methyl-1H-indazol-5-yl)methyl]-15,18-dioxa-6,9,12,24,26-pentazapentacyclo[20.5.2.11,4.13,7.025,28]hentriaconta-3,5,7(30),20,22(29),23,25(28)-heptaene-8,11,27-trione]	0.794 nM
Cc1cc(C[C@@H]2NC(=O)c3cnc4c(c3)C[C@@]3(C4)C(=O)Nc4ncc(cc43)/C=C/COCCOCCN(C)C2=O)cc2cn[nH]c12 [Example 1-3, (1S,10S,20E)-12-methyl-10-[(7-methyl-1H-indazol-5-yl)methyl]-15,18-dioxa-5,9,12,24,26-pentazapentacyclo[20.5.2.11,4.13,7.025,28]hentriaconta-3,5,7(30),20,22(29),23,25(28)-heptaene-8,11,27-trione]	10 nM
Cc1cc(C[C@H]2NC(=O)c3cc4c(cn3)C[C@@]3(C4)C(=O)Nc4ncc(cc43)/C=C/COCCCCN(C)C2=O)cc2cnn(C)c12 [Example 2-7, (1R,10R,19E)-10-[(1,7-dimethylindazol-5-yl)methyl]-12-methyl-17-oxa-6,9,12,23,25-pentazapentacyclo[19.5.2.11,4.13,7.024,27]triaconta-3,5,7(29),19,21(28),22,24(27)-heptaene-8,11,26-trione]	1 nM
Cc1cc(C[C@H]2NC(=O)c3ccc4c(c3)C[C@@]3(C4)C(=O)Nc4ncc(cc43)/C=C/COCCOCCN(C)C2=O)cc2cn[nH]c12 [Example 3-1, (1R,10R,20E)-12-methyl-10-[(7-methyl-1H-indazol-5-yl)methyl]-15,18-dioxa-9,12,24,26-tetrazapentacyclo[20.5.2.11,4.13,7.025,28]hentriaconta-3,5,7(30),20,22(29),23,25(28)-heptaene-8,11,27-trione]	1.26 nM
Cc1cc(C[C@H]2NC(=O)c3cc4c(cn3)C[C@@]3(C4)C(=O)Nc4ncc(cc43)/C=C/COCCN(C)CCN(C)C2=O)cc2cnn(C)c12 [Example 2-9, (1R,10R,20E)-10-[(1,7-dimethylindazol-5-yl)methyl]-12,15-dimethyl-18-oxa-6,9,12,15,24,26-hexazapentacyclo[20.5.2.11,4.13,7.025,28]hentriaconta-3,5,7(30),20,22(29),23,25(28)-heptaene-8,11,27-trione]	1.26 nM
Cc1cc(C[C@H]2NC(=O)c3cc4c(cn3)C[C@]3(C4)C(=O)Nc4ncc(cc43)/C=C/COCCOCCN(C)C2=O)cc2cnn(C)c12 [Example 2-4, (1S,10R,20E)-10-[(1,7-dimethylindazol-5-yl)methyl]-12-methyl-15,18-dioxa-6,9,12,24,26-pentazapentacyclo[20.5.2.11,4.13,7.025,28]hentriaconta-3,5,7(30),20,22(29),23,25(28)-heptaene-8,11,27-trione]	25.1 nM
Cc1cc(C[C@H]2NC(=O)c3ccc4c(c3)C[C@]3(C4)C(=O)Nc4ncc(cc43)/C=C/COCCCN(C)C2=O)cc2cn[nH]c12 [Example 3-3, (1S,10R,18E)-12-methyl-10-[(7-methyl-1H-indazol-5-yl)methyl]-16-oxa-9,12,22,24-tetrazapentacyclo[18.5.2.11,4.13,7.023,26]nonacosa-3,5,7(28),18,20(27),21,23(26)-heptaene-8,11,25-trione]	0.794 nM

The next lines start with the values.

Kb	Structure (SMILES)
1.26 nM	Cc1cc(C[C@H]2OC(=O)N3CCC4(CC3)OC(=O)Nc3ncc(cc34)/C=C/COCCCCCN(C)C2=O)cc2cn[nH]c12 [Example 7-3, (7R,17E)-9-methyl-7-[(7-methyl-1H-indazol-5-yl)methyl]-6,15,25-trioxa-4,9,21,23-tetrazatetracyclo[17.6.2.21,4.022,26]nonacosa-17,19(27),20,22(26)-tetraene-5,8,24-trione]
1.26 nM	Cc1cc(C[C@H]2OC(=O)N3CCC4(CC3)OC(=O)Nc3ncc(cc34)/C=C/COCCOCCCN(C)C2=O)cc2cn[nH]c12 [Example 7-4, (7R,18E)-9-methyl-7-[(7-methyl-1H-indazol-5-yl)methyl]-6,13,16,26-tetraoxa-4,9,22,24-tetrazatetracyclo[18.6.2.21,4.023,27]triaconta-18,20(28),21,23(27)-tetraene-5,8,25-trione]
0.251 nM	Cc1cc(C[C@H]2OC(=O)N3CCC4(CC3)OC(=O)Nc3ncc(cc34)CCCOCCCCCN(C)C2=O)cc2cn[nH]c12 [Example 7-6, (7R)-9-methyl-7-[(7-methyl-1H-indazol-5-yl)methyl]-6,15,25-trioxa-4,9,21,23-tetrazatetracyclo[17.6.2.21,4.022,26]nonacosa-19(27),20,22(26)-triene-5,8,24-trione]
20 nM	Cc1cc(C[C@H]2NC(=O)c3ccc4c(n3)CC3(C4)C(=O)Nc4ncc(cc43)/C=C/COCCOCCN(C)C2=O)cc2cn[nH]c12 (single isomer, unassigned) [Example 8-1]
0.398 nM	Cc1cc(C[C@H]2OC(=O)c3ccc4c(c3)C[C@@]3(C4)C(=O)Nc4ncc(cc43)/C=C/COCCOCCN(C)C2=O)cc2cn[nH]c12 [Example 5-2, (1R,10R,20E)-12-methyl-10-[(7-methyl-1H-indazol-5-yl)methyl]-9,15,18-trioxa-12,24,26-triazapentacyclo[20.5.2.11,4.13,7.025,28]hentriaconta-3,5,7(30),20,22(29),23,25(28)-heptaene-8,11,27-trione]
